Here are results for 1 molecule from patent publication US10273240B2, “Cortistatin analogues, syntheses, and uses thereof” (President and Fellows of Harvard College, priority 2015, dated 2019).

One data set has as its system UKE-1. The data set is described as follows: Cell growth assay, UKE-1. In kind it is cell-based. The settings on record: Homo sapiens, UKE1, 240 h; CA, after 10 days. The method, then:
(§1) Cell Culture. All media was supplemented with 100 U/mL penicillin and 100 μg/mL streptomycin. Human cancer cell lines were grown in the following media: MV4; 11, RS4; 11, K562, HEL, MOLM-14, MEG-01 in RPMI-1640, 10% FBS; SET-2 in RPMI-1640, 20% FBS; UKE-1 in RPMI-1640, 10% FBS, 10% horse serum and 1 μM hydrocortisone; SKNO-1 and TF-1 in RPMI-1640, 10% FBS, and 10 or 2 ng/mL GM-CSF, respectively; HaCaT in DMEM, 10% FBS; and HCT116 in McCoy's 5 A, 10% FBS (proliferation assay) or DMEM, 10% FBS (gene expression study). HepG2, MV4;11, RS4;11, MEG-01, TF-1, HCT116 and K562 were from ATCC. SKNO-1 was from DSMZ. HEL, UKE-1, and SET-2 were provided by Ross L. Levine and HaCaT, MV4;11-mCLP, and MOLM-14 by Van Wilson, Andrew L. Kung, and Scott A. Armstrong, respectively. MOLM-14 cells were authenticated by STR profiling and flow cytometry and all cell lines were routinely tested and found to be negative for mycoplasma.

A further data set concerns TF-1. The experiment in a line: Cell growth assay, TF-1. In kind it is cell-based. The following applies: Homo sapiens, TF-1, 240 h; CA, after 10 days; read-out: Mean GI50 (nM), TF-1. As for the experimental part:
as §1

Data set [1] concerns STAT1 S727 phosphorylation. The data set is described as follows: IFN-γ-stimulated STAT1 S727 phosphorylation immunoblot. In kind it is cell-based, human. The settings on record: MOLM-14 cells. The method, then: Kinase Assays. Data was quantified with ImageJ and plotted and fitted with GraphPad Prism 6.0. For STAT1 transactivation domain (TAD), 750 ng of GST-STAT1 TAD (residues 639-750) was incubated with ˜50 ng recombinant CDK8 module at 30° C. for 8 min in kinase buffer (25 mM Tris pH 8, 2 mM DTT, 100 μM cold ATP, 100 mM KCl, 10 mM MgCl2 and 2.5 μCi [γ-^32P] ATP (Perkin Elmer) per reaction). […] 12% SDS-PAGE gels were subsequently silver stained, exposed for 18 h on a Phosphor Screen and imaged (Typhoon 9400, GE Life Sciences). For pol II CTD, 400 ng of GST-CTD (murine sequence) was incubated with ˜40 ng recombinant CDK8 module, 25 ng TFIIH, or 40 ng P-TEFb at 30° C. for 60 min in kinase buffer. Kinase amounts were chosen to give similar total pol II CTD signal. 9% SDS-PAGE gels were silver stained and exposed as above. In vitro FLAG-CDK8 kinase assays used ˜40 ng kinase and 500 ng GST-CTD. For STAT1 or Smad2/3, cells were treated with compound for 1 h followed by IFN-γ or TGF-β1 for 1 h, then washed twice with cold PBS, and lysed (RIPA buffer with inhibitors R0278, P8340, P0044, P5762 Sigma-Aldrich). Standard immunoblotting was then performed with one immunoblot shown. All experiments were performed twice.
Background: Immunoblotting shows a protein as a band on a membrane.

The nature of data set [2]: Pharmacokinetic study in mice. In kind it is in vivo. The following applies: once-daily intraperitoneal (IP) dosing. The method, then: In Vivo Studies. Studies were performed at Charles River Laboratories (CRL) and Dana Farber Cancer Institute (DFCI) where indicated and approved by Harvard University and each institution's respective animal care and use committee. For pharmacokinetic studies, serial blood samples from 7 week old male CD-1 mice (n=3 per timepoint) were collected (no blinding) into K2EDTA tubes, centrifuged, transferred into 96-well plates (matrix tubes), stored at −20° C., and analysed by HPLC/MS/MS (in-life performed at CRL). Study size was determined by the need for three blood samples per timepoint with three blood samples collected per mouse. The MV4; 11 xenograft model were performed as previously described (Etchin, J. et al. Antileukemic activity of nuclear export inhibitors that spare normal hematopoietic cells. Leukemia 27, 66-74 (2013); in-life performed at DFCI) Two million MV4;11-mCLP cells were injected into the tail vein of 7-week-old female NOD-SCID-IL2Rcγ^null (NSG) mice (The Jackson Laboratory) and tumor burden was assessed by bioluminescence imaging (BLI) using an IVIS Spectrum system (Caliper Life Sciences). […] After 30 days, blood counts were obtained (Hemavet 950 F, Drew Scientific) and spleen, femur, and peripheral blood cells were collected and analysed by flow cytometry (LSR Fortessa, BD Biosciences) from 3 mice/group. […]

The test system of data set [3] is STAT1 S727 phosphorylation in NK cells. The data set is described as follows: STAT1 pS727 inhibition in NK cells in vivo. The following applies: C57BL/6 mice, NK cells from spleen.

In general, GI50 refers to the concentration that inhibits growth by half. Consider `CN(C)[C@H]1C[C@@]23CC[C@@]4(O2)C(=CC[C@@]2(C)[C@@H](c5ccc6ccncc6c5)CC[C@H]24)C=C3[C@@H](O)[C@@H]1O` [CA, cortistatin A], for which the GI50 was determined as 7 nM in the data set on UKE-1 and 350 nM in the data set on TF-1. In data set [1], the “inhibition of STAT1 S727 phosphorylation” value was “dose-dependently inhibited”. For the same molecule, the pharmacokinetic properties result in data set [2] was “acceptable pharmacokinetic properties”. Besides, in data set [3], the “STAT1 S727 phosphorylation in NK cells” value is “dose-dependent reduction”.
